Results from PMC6099883 (Proceedings of the National Academy of Sciences of the …, 2018).
pKd: −log10 of the molar value.

Molecular target: T1, OsGID1 with SLR1 (Oryza sativa, UniProt Q6L545)
T1 sequence (Q6L545 1-354): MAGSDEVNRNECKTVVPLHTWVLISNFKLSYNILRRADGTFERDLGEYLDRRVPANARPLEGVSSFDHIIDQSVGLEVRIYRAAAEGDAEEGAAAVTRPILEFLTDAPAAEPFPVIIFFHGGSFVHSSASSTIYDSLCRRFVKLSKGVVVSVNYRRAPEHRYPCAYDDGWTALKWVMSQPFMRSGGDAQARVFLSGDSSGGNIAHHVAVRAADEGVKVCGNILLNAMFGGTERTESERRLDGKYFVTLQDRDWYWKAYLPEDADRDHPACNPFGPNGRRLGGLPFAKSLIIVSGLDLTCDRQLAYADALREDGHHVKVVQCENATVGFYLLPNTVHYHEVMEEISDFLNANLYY
T1 sequence (Q7G7J6 1-625 partner): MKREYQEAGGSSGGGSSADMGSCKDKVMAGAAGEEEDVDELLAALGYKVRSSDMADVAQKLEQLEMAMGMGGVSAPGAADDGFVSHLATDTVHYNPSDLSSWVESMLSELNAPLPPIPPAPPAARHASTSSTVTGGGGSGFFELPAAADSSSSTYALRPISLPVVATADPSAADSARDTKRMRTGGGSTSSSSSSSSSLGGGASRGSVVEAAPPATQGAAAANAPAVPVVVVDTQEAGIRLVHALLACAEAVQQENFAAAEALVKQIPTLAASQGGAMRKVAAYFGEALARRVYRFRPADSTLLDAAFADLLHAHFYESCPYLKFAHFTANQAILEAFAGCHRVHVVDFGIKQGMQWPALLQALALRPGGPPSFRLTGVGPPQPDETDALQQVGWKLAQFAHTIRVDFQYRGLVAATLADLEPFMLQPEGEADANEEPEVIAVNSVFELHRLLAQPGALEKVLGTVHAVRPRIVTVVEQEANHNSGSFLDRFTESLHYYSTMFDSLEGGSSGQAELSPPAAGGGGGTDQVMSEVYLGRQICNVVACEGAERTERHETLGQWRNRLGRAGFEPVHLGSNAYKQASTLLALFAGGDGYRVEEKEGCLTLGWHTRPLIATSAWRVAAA
Experiment: SPR
Assay type: binding

SMILES | pKd
C=C1C[C@]23C[C@@]1(O)CC[C@H]2[C@@]12CC[C@H](O)[C@@](C)(C(=O)O1)[C@H]2[C@@H]3C(=O)O [GA1] | 6.52
C=C1C[C@]23C[C@@]1(O)CC[C@H]2[C@@]12C=C[C@H](O)[C@@](C)(C(=O)O1)[C@H]2[C@@H]3C(=O)O [GA3] | 6.53
